Test results taken from US20230098569A1, “METHODS OF CONTROLLING OR PREVENTING INFESTATION OF PLANTS BY THE PHYTOPATHOGENIC MICROORGANISM CORYNESPORA CASSIICOLA” (SYNGENTA CROP PROTECTION AG, priority 2020, published 2023).

tested on: Corynespora cassiicola; test: Corynespora cassiicola liquid culture growth inhibition (PDB, 96-well microtiter plate, photometric at 620 nm); assay type: cell-based; details: 24 C, 3-4 days, compared to untreated control
Experimental: Conidia of the fungus from cryogenic storage were directly mixed into nutrient broth (PDB potato dextrose broth). A DMSO solution of the test compounds was placed into a microtiter plate (96-well format) and the nutrient broth containing the fungal spores was added to it. The test plates were incubated at 24 C and the inhibition of growth (% control of Corynespora cassiicola) was determined photometrically after 3-4 days at 620 nm. The activity of a compound is derived by comparing the inhibition of growth in the treated test solution to the growth in the untreated check. The concentration of the compounds was 6.7, 2.2, 0.74, 0.25, 0.082 and 0.027 ppm.

SMILES	inhibition at 6.7 ppm [%]
Cc1cccc2c1ncn2C1=NC(C)(C)C(F)(F)c2ccccc21 [Compound 1]	≥ 70
Cc1ccc2c(ncn2C2=NC(C)(C)C(F)(F)c3ccccc32)c1C [Compound 2]	≥ 70
Cc1c(F)ccc2c1ncn2C1=NC(C)(C)C(F)(F)c2ccccc21 [Compound 3]	≥ 70
Cc1ccc2c(ncn2C2=NC(C)(C)C(F)(F)c3c(F)cccc32)c1C [Compound 4]	≥ 70
Cc1cccc2c1ncn2C1=NC(C)(C)C(F)(F)c2cc(Cl)ccc21 [Compound 5]	≥ 70
CC1(C)N=C(n2cnc3c4c(ccc32)CCC4)c2ccccc2C1(F)F [Compound 6]	≥ 70
